From PubChem BioAssay AID1963968 (Molecular Pharmacology Branch, DTP, NCI, 2024)

Tested on: 945468-187-T-J3-PDC spheroids with HUVEC/MSC, viability
Assay: Anticancer human tumor 945468-187-T-J3-PDC patient-derived rectal carcinoma cell line growth inhibition [PI3K]
Conditions: for IC50: curve of first compound; for viability, T/C: stronger effect = lower value
Procedure, shortened: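 Viability of mixed-cell spheroids was determined after exposure to pairwise combinations, one partner being inavolisib, alpelisib, duvelisib or copanlisib. Highest tested concentration matched clinical Cmax where known and 10 microM where not, descending in half-log steps.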

[1] = second compound 0.0316 µM, first compound 0.0316 µM
[2] = second compound 0.0316 µM, first compound 0.1 µM
[3] = second compound 0.0316 µM, first compound 0.316 µM
[4] = second compound 0.0316 µM, first compound 1 µM
[5] = second compound 0.0316 µM, first compound 3.16 µM
[6] = second compound 0.0316 µM, first compound 10 µM
[7] = second compound 0.1 µM, first compound 0.0316 µM
[8] = second compound 0.1 µM, first compound 0.1 µM
[9] = second compound 0.1 µM, first compound 0.316 µM
[10] = second compound 0.1 µM, first compound 1 µM
[11] = second compound 0.1 µM, first compound 3.16 µM
[12] = second compound 0.1 µM, first compound 10 µM
[13] = second compound 0.316 µM, first compound 0.0316 µM
[14] = second compound 0.316 µM, first compound 0.1 µM
[15] = second compound 0.316 µM, first compound 0.316 µM
[16] = second compound 0.316 µM, first compound 1 µM
[17] = second compound 0.316 µM, first compound 3.16 µM
[18] = second compound 0.316 µM, first compound 10 µM
[19] = second compound 1 µM, first compound 0.0316 µM
[20] = second compound 1 µM, first compound 0.1 µM
[21] = second compound 1 µM, first compound 0.316 µM
[22] = second compound 1 µM, first compound 1 µM
[23] = second compound 1 µM, first compound 3.16 µM
[24] = second compound 1 µM, first compound 10 µM
[25] = second compound 3.16 µM, first compound 0.0316 µM
[26] = second compound 3.16 µM, first compound 0.1 µM
[27] = second compound 3.16 µM, first compound 0.316 µM
[28] = second compound 3.16 µM, first compound 1 µM
[29] = second compound 3.16 µM, first compound 3.16 µM
[30] = second compound 3.16 µM, first compound 10 µM
[31] = second compound 10 µM, first compound 0.0316 µM
[32] = second compound 10 µM, first compound 0.1 µM
[33] = second compound 10 µM, first compound 0.316 µM
[34] = second compound 10 µM, first compound 1 µM
[35] = second compound 10 µM, first compound 3.16 µM
[36] = second compound 10 µM, first compound 10 µM
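Note: spheroids exposed to agents for 7 days before viability read.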
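Throughout, for viability, T/C: 100% = DMSO vehicle control viability.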

C[C@@H](NC(=O)c1ncnc(N)c1Cl)c1ncc(C(=O)Nc2cc(C(F)(F)F)c(Cl)cn2)s1 + CC(Nc1ncnc2nc[nH]c12)c1cc2cccc(Cl)c2c(=O)n1-c1ccccc1
IC50 (second compound 0.0316 µM): > 10000 nM
IC50 (second compound 0.1 µM): > 10000 nM
IC50 (second compound 0.316 µM): > 10000 nM
IC50 (second compound 1 µM): > 10000 nM
IC50 (second compound 3.16 µM): > 10000 nM
IC50 (second compound 10 µM): > 10000 nM
viability, T/C [1]: 98%
viability, T/C [2]: 87.3%
viability, T/C [3]: 95.9%
viability, T/C [4]: 101%
viability, T/C [5]: 104%
viability, T/C [6]: 105%
viability, T/C [7]: 106%
viability, T/C [8]: 109%
viability, T/C [9]: 97.7%
viability, T/C [10]: 96.5%
viability, T/C [11]: 94.7%
viability, T/C [12]: 103%
viability, T/C [13]: 95.7%
viability, T/C [14]: 115%
viability, T/C [15]: 108%
viability, T/C [16]: 103%
viability, T/C [17]: 98.7%
viability, T/C [18]: 96.6%
viability, T/C [19]: 101%
viability, T/C [20]: 101%
viability, T/C [21]: 103%
viability, T/C [22]: 96.2%
viability, T/C [23]: 102%
viability, T/C [24]: 86.5%
viability, T/C [25]: 104%
viability, T/C [26]: 105%
viability, T/C [27]: 92.7%
viability, T/C [28]: 106%
viability, T/C [29]: 96.4%
viability, T/C [30]: 96%
viability, T/C [31]: 101%
viability, T/C [32]: 99.7%
viability, T/C [33]: 92.5%
viability, T/C [34]: 108%
viability, T/C [35]: 98.8%
viability, T/C [36]: 93.3%

Cn1ncc(Cl)c1-c1cc(C(=O)NC(CN)Cc2cccc(F)c2)sc1Cl (stereo unspecified) + CC(Nc1ncnc2nc[nH]c12)c1cc2cccc(Cl)c2c(=O)n1-c1ccccc1
IC50 (second compound 0.0316 µM): 1720 nM
IC50 (second compound 0.1 µM): 2390 nM
IC50 (second compound 0.316 µM): 1970 nM
IC50 (second compound 1 µM): 1340 nM
IC50 (second compound 3.16 µM): 1730 nM
IC50 (second compound 10 µM): 1140 nM
viability, T/C [1]: 101%
viability, T/C [2]: 96%
viability, T/C [3]: 99.9%
viability, T/C [4]: 59.3%
viability, T/C [5]: 44.9%
viability, T/C [6]: 33.5%
viability, T/C [7]: 94.9%
viability, T/C [8]: 104%
viability, T/C [9]: 88.2%
viability, T/C [10]: 60.5%
viability, T/C [11]: 51.5%
viability, T/C [12]: 38.2%
viability, T/C [13]: 106%
viability, T/C [14]: 97.3%
viability, T/C [15]: 87.3%
viability, T/C [16]: 62.1%
viability, T/C [17]: 41.2%
viability, T/C [18]: 28.6%
viability, T/C [19]: 112%
viability, T/C [20]: 89.5%
viability, T/C [21]: 86.2%
viability, T/C [22]: 48.6%
viability, T/C [23]: 39%
viability, T/C [24]: 28.5%
viability, T/C [25]: 107%
viability, T/C [26]: 97.7%
viability, T/C [27]: 86.5%
viability, T/C [28]: 57.6%
viability, T/C [29]: 40.7%
viability, T/C [30]: 24.6%
viability, T/C [31]: 107%
viability, T/C [32]: 75.9%
viability, T/C [33]: 84.2%
viability, T/C [34]: 44.5%
viability, T/C [35]: 35%
viability, T/C [36]: 20.1%

Cn1ncnc1[C@H]1c2n[nH]c(=O)c3cc(F)cc(c23)N[C@@H]1c1ccc(F)cc1 + CC(Nc1ncnc2nc[nH]c12)c1cc2cccc(Cl)c2c(=O)n1-c1ccccc1
IC50 (second compound 0.0316 µM): > 100 nM
IC50 (second compound 0.1 µM): > 100 nM
IC50 (second compound 0.316 µM): > 100 nM
IC50 (second compound 1 µM): > 100 nM
IC50 (second compound 3.16 µM): > 100 nM
IC50 (second compound 10 µM): > 100 nM
viability, T/C (second compound 0.0316 µM, first compound 0.000316 µM): 105%
viability, T/C (second compound 0.0316 µM, first compound 0.001 µM): 87.4%
viability, T/C (second compound 0.0316 µM, first compound 0.00316 µM): 91.7%
viability, T/C (second compound 0.0316 µM, first compound 0.01 µM): 82.9%
viability, T/C [1]: 101%
viability, T/C [2]: 92.4%
viability, T/C (second compound 0.1 µM, first compound 0.000316 µM): 94.2%
viability, T/C (second compound 0.1 µM, first compound 0.001 µM): 87.8%
viability, T/C (second compound 0.1 µM, first compound 0.00316 µM): 97.8%
viability, T/C (second compound 0.1 µM, first compound 0.01 µM): 85.6%
viability, T/C [7]: 89.3%
viability, T/C [8]: 97.8%
viability, T/C (second compound 0.316 µM, first compound 0.000316 µM): 97.5%
viability, T/C (second compound 0.316 µM, first compound 0.001 µM): 95.8%
viability, T/C (second compound 0.316 µM, first compound 0.00316 µM): 90.1%
viability, T/C (second compound 0.316 µM, first compound 0.01 µM): 103%
viability, T/C [13]: 88%
viability, T/C [14]: 101%
viability, T/C (second compound 1 µM, first compound 0.000316 µM): 85.2%
viability, T/C (second compound 1 µM, first compound 0.001 µM): 109%
viability, T/C (second compound 1 µM, first compound 0.00316 µM): 98.5%
viability, T/C (second compound 1 µM, first compound 0.01 µM): 86.8%
viability, T/C [19]: 104%
viability, T/C [20]: 105%
viability, T/C (second compound 3.16 µM, first compound 0.000316 µM): 103%
viability, T/C (second compound 3.16 µM, first compound 0.001 µM): 99.8%
viability, T/C (second compound 3.16 µM, first compound 0.00316 µM): 95.1%
viability, T/C (second compound 3.16 µM, first compound 0.01 µM): 100%
viability, T/C [25]: 102%
viability, T/C [26]: 104%
viability, T/C (second compound 10 µM, first compound 0.000316 µM): 101%
viability, T/C (second compound 10 µM, first compound 0.001 µM): 97.5%
viability, T/C (second compound 10 µM, first compound 0.00316 µM): 106%
viability, T/C (second compound 10 µM, first compound 0.01 µM): 95.7%
viability, T/C [31]: 96.9%
viability, T/C [32]: 102%
